Laboratory results as given in PubChem BioAssay (NCI).
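Grown in 96-well plates, cells were treated for 48 hours with each compound at five concentrations. Insufficient inhibition: endpoint recorded as highest concentration tested. Abbreviation: GI50, concentration required for 50% inhibition of growth. TGI marks complete inhibition of growth.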

How the values were obtained:
Assay in all cases: NCI-60 cell line screen, 48 h
786-0 renal = system: 786-0 renal
A498 renal = system: A498 renal
A549 NSCLC = system: A549 NSCLC
ACHN renal = system: ACHN renal
BT-549 breast = system: BT-549 breast
CAKI-1 renal = system: CAKI-1 renal
CCRF-CEM leukemia = system: CCRF-CEM leukemia
COLO 205 colon = system: COLO 205 colon
DU-145 prostate = system: DU-145 prostate
EKVX NSCLC = system: EKVX NSCLC
HCC-2998 colon = system: HCC-2998 colon
HCT-116 colon = system: HCT-116 colon
HCT-15 colon = system: HCT-15 colon
HL-60(TB) leukemia = system: HL-60(TB) leukemia
HOP-62 NSCLC = system: HOP-62 NSCLC
HOP-92 NSCLC = system: HOP-92 NSCLC
HS 578T breast = system: HS 578T breast
HT29 colon = system: HT29 colon
IGROV1 ovarian = system: IGROV1 ovarian
K-562 leukemia = system: K-562 leukemia
KM12 colon = system: KM12 colon
LOX IMVI melanoma = system: LOX IMVI melanoma
M14 melanoma = system: M14 melanoma
MALME-3M melanoma = system: MALME-3M melanoma
MCF7 breast = system: MCF7 breast
MDA-MB-231 breast = system: MDA-MB-231 breast
MDA-MB-435 = system: MDA-MB-435
MDA-MB-468 breast = system: MDA-MB-468 breast
MOLT-4 leukemia = system: MOLT-4 leukemia
NCI-H226 lung = system: NCI-H226 lung
NCI-H23 lung = system: NCI-H23 lung
NCI-H460 lung = system: NCI-H460 lung
NCI-H522 lung = system: NCI-H522 lung
OVCAR-3 ovarian = system: OVCAR-3 ovarian
OVCAR-4 ovarian = system: OVCAR-4 ovarian
OVCAR-8 ovarian = system: OVCAR-8 ovarian
PC-3 prostate = system: PC-3 prostate
RPMI-8226 leukemia = system: RPMI-8226 leukemia
RXF 393 renal = system: RXF 393 renal
SF-268 CNS = system: SF-268 CNS
SF-295 CNS = system: SF-295 CNS
SF-539 CNS = system: SF-539 CNS
SK-MEL-2 melanoma = system: SK-MEL-2 melanoma
SK-MEL-28 melanoma = system: SK-MEL-28 melanoma
SK-MEL-5 melanoma = system: SK-MEL-5 melanoma
SK-OV-3 ovarian = system: SK-OV-3 ovarian
SN12C renal = system: SN12C renal
SNB-19 CNS = system: SNB-19 CNS
SR leukemia = system: SR leukemia
SW-620 colon = system: SW-620 colon
T-47D breast = system: T-47D breast
TK-10 renal = system: TK-10 renal
U251 CNS = system: U251 CNS
UACC-257 melanoma = system: UACC-257 melanoma
UACC-62 melanoma = system: UACC-62 melanoma
UO-31 renal = system: UO-31 renal

Structure (SMILES): COc1cc(/C=C/C(=O)c2cnn(-c3cc(=O)[nH]c4ccccc34)c2C)cc(OC)c1OC
- GI50 (786-0 renal): 4.56 µM
- TGI (786-0 renal): 28.9 µM
- GI50 (A498 renal): 34.2 µM
- TGI (A498 renal): > 100 µM
- GI50 (A549 NSCLC): 3.78 µM
- TGI (A549 NSCLC): > 100 µM
- GI50 (ACHN renal): 3.72 µM
- TGI (ACHN renal): 25.5 µM
- GI50 (BT-549 breast): 3.48 µM
- TGI (BT-549 breast): 24.9 µM
- GI50 (CAKI-1 renal): 4.05 µM
- TGI (CAKI-1 renal): > 100 µM
- GI50 (CCRF-CEM leukemia): 2.58 µM
- TGI (CCRF-CEM leukemia): 21.5 µM
- GI50 (COLO 205 colon): 3.71 µM
- TGI (COLO 205 colon): 17.5 µM
- GI50 (DU-145 prostate): 4.21 µM
- TGI (DU-145 prostate): > 100 µM
- GI50 (EKVX NSCLC): 3.42 µM
- TGI (EKVX NSCLC): > 100 µM
- GI50 (HCC-2998 colon): 4 µM
- TGI (HCC-2998 colon): > 100 µM
- GI50 (HCT-116 colon): 7.13 µM
- TGI (HCT-116 colon): > 100 µM
- GI50 (HCT-15 colon): 3.23 µM
- TGI (HCT-15 colon): 26.1 µM
- GI50 (HL-60(TB) leukemia): 3.52 µM
- TGI (HL-60(TB) leukemia): > 100 µM
- GI50 (HOP-62 NSCLC): 4.43 µM
- TGI (HOP-62 NSCLC): 27.1 µM
- GI50 (HOP-92 NSCLC): 7.59 µM
- TGI (HOP-92 NSCLC): 51.8 µM
- GI50 (HS 578T breast): 4.54 µM
- TGI (HS 578T breast): > 100 µM
- GI50 (HT29 colon): 3.14 µM
- TGI (HT29 colon): > 100 µM
- GI50 (IGROV1 ovarian): 3 µM
- TGI (IGROV1 ovarian): 16.3 µM
- GI50 (K-562 leukemia): 2.68 µM
- TGI (K-562 leukemia): > 100 µM
- GI50 (KM12 colon): 3.83 µM
- TGI (KM12 colon): > 100 µM
- GI50 (LOX IMVI melanoma): 2.1 µM
- TGI (LOX IMVI melanoma): 5.64 µM
- GI50 (M14 melanoma): 4.45 µM
- TGI (M14 melanoma): > 100 µM
- GI50 (MALME-3M melanoma): 5.84 µM
- TGI (MALME-3M melanoma): > 100 µM
- GI50 (MCF7 breast): 2.88 µM
- TGI (MCF7 breast): > 100 µM
- GI50 (MDA-MB-231 breast): 3.06 µM
- TGI (MDA-MB-231 breast): 14.1 µM
- GI50 (MDA-MB-435): 3.34 µM
- TGI (MDA-MB-435): > 100 µM
- GI50 (MDA-MB-468 breast): 2.22 µM
- TGI (MDA-MB-468 breast): 6.06 µM
- GI50 (MOLT-4 leukemia): 3.28 µM
- TGI (MOLT-4 leukemia): > 100 µM
- GI50 (NCI-H226 lung): 5.24 µM
- TGI (NCI-H226 lung): 47.8 µM
- GI50 (NCI-H23 lung): 2.66 µM
- TGI (NCI-H23 lung): 7.98 µM
- GI50 (NCI-H460 lung): 2.55 µM
- TGI (NCI-H460 lung): 7.29 µM
- GI50 (NCI-H522 lung): 3.74 µM
- TGI (NCI-H522 lung): 39.8 µM
- GI50 (OVCAR-3 ovarian): 3.57 µM
- TGI (OVCAR-3 ovarian): > 100 µM
- GI50 (OVCAR-4 ovarian): 5.48 µM
- TGI (OVCAR-4 ovarian): > 100 µM
- GI50 (OVCAR-8 ovarian): 2.11 µM
- TGI (OVCAR-8 ovarian): 5.09 µM
- GI50 (PC-3 prostate): 7.39 µM
- TGI (PC-3 prostate): > 100 µM
- GI50 (RPMI-8226 leukemia): 2.99 µM
- TGI (RPMI-8226 leukemia): > 100 µM
- GI50 (RXF 393 renal): 2.65 µM
- TGI (RXF 393 renal): 8.21 µM
- GI50 (SF-268 CNS): 4.26 µM
- TGI (SF-268 CNS): > 100 µM
- GI50 (SF-295 CNS): 2.95 µM
- TGI (SF-295 CNS): 18.1 µM
- GI50 (SF-539 CNS): 2.01 µM
- TGI (SF-539 CNS): 4.84 µM
- GI50 (SK-MEL-2 melanoma): 2.89 µM
- TGI (SK-MEL-2 melanoma): 10.2 µM
- GI50 (SK-MEL-28 melanoma): 4.94 µM
- TGI (SK-MEL-28 melanoma): > 100 µM
- GI50 (SK-MEL-5 melanoma): 3.51 µM
- TGI (SK-MEL-5 melanoma): 14.7 µM
- GI50 (SK-OV-3 ovarian): 5.03 µM
- TGI (SK-OV-3 ovarian): 35.9 µM
- GI50 (SN12C renal): 2.2 µM
- TGI (SN12C renal): 8.36 µM
- GI50 (SNB-19 CNS): 5.23 µM
- TGI (SNB-19 CNS): > 100 µM
- GI50 (SR leukemia): 3.82 µM
- TGI (SR leukemia): > 100 µM
- GI50 (SW-620 colon): 3.59 µM
- TGI (SW-620 colon): > 100 µM
- GI50 (T-47D breast): 2.8 µM
- TGI (T-47D breast): > 100 µM
- GI50 (TK-10 renal): 4.62 µM
- TGI (TK-10 renal): > 100 µM
- GI50 (U251 CNS): 2.74 µM
- TGI (U251 CNS): 13.6 µM
- GI50 (UACC-257 melanoma): 7.03 µM
- TGI (UACC-257 melanoma): > 100 µM
- GI50 (UACC-62 melanoma): 5.18 µM
- TGI (UACC-62 melanoma): 20.5 µM
- GI50 (UO-31 renal): 4.03 µM
- TGI (UO-31 renal): 37.1 µM
